Assays:
[1] = tested on: Newly Diagnosed Glioblastoma (GBM); settings: Gefitinib+Radiation vs historical controls; cited from earlier work
GBM = experiment: Clinical outcome of RT+Gefitinib (RTOG 0211, Array 19) versus RT alone (historical, Array 8) patients stratified by AQUA biomarker level
[2] = tested on: chronic myelogenous leukemia and gastrointestinal stromal tumors; settings: patients with chronic myelogenous leukemia and gastrointestinal stromal tumors; cited from earlier work

| Structure (SMILES) | survival compared to historical controls [1] | overall survival, RTOG 0211 versus historical controls (RT alone) (GBM; patients with elevated ratio of cytoplasmic to nuclear pAKT) | overall survival times, Gefitinib+RT versus RT only (GBM; patients with intermediate-to-high levels of Src expression) | clinical outcome, RT+Gefitinib versus RT alone (GBM; patients with lower levels of PTEN expression, p=0.08) | efficacy as therapy [2] | toxicity as therapy [2] |
| --- | --- | --- | --- | --- | --- | --- |
| COc1cc2ncnc(Nc3ccc(F)c(Cl)c3)c2cc1OCCCN1CCOCC1 [Gefitinib] | survival was not significantly improved | improved overall survival | significantly worse overall survival times | trend towards improved outcome |  |  |
| Cc1ccc(NC(=O)c2ccc(CN3CCN(C)CC3)cc2)cc1Nc1nccc(-c2cccnc2)n1 [STI-571] |  |  |  |  | highly effective | non-toxic |

— patent US8557527B2 (HistoRx, Inc., priority 2008, dated 2013)
